Assay results from the CheMixHub ionic liquid set.
± gives the uncertainty stated by the source.

Assay: xn = mol fraction of the nth substance listed

OCC(F)(F)F + COP(=O)([O-])OC.Cn1cc[n+](C)c1
viscosity [mPa·s], 101 kPa
Conditions	298.15 K	333.15 K
x2 = 0.4904	42.9 ± 1.8	–
x2 = 0.803	158.2 ± 8.6	31.5 ± 1.3

CCCO + CS(=O)(=O)[O-].C[N+](C)(CCO)CCO
101 kPa, x2 = 0
Conditions	viscosity [mPa·s]
298.15 K	1.95 ± 0.12
303.15 K	1.73 ± 0.11
308.15 K	1.545 ± 0.093
313.15 K	1.383 ± 0.084
318.15 K	1.247 ± 0.075
323.15 K	1.136 ± 0.069

CC(=O)[O-].CC[n+]1ccn(C)c1 + CS(C)=O
298.1 K, 100 kPa
Conditions	electrical conductivity [S/m]
x1 = 0.108	0.94 ± 0.04
x1 = 0.653	0.65 ± 0.03

CC[NH+](CC)CC.O=S(=O)([O-])O + CS(C)=O
101 kPa
Conditions	viscosity [mPa·s]
298.15 K, x1 = 0.011	3.84 ± 0.08
298.15 K, x2 = 0.0244	228 ± 4.7
298.15 K, x2 = 0.199	178 ± 3.7
298.15 K, x2 = 0.9539	9.02 ± 0.19
303.15 K, x1 = 0.011	3.01 ± 0.06
303.15 K, x2 = 0.653	40.58 ± 0.84
308.15 K, x2 = 0.2473	97.6 ± 2
308.15 K, x2 = 0.4004	74.6 ± 1.5

CC[n+]1ccn(C)c1.CS(=O)(=O)[O-] + CS(C)=O
101 kPa, x1 = 0.3333
Conditions	viscosity [mPa·s]
283.15 K	5.66 ± 0.57
288.15 K	5.04 ± 0.51
293.15 K	4.47 ± 0.45
298.15 K	3.94 ± 0.4
303.15 K	3.47 ± 0.35
308.15 K	3.04 ± 0.31
313.15 K	2.66 ± 0.27
318.15 K	2.33 ± 0.23
323.15 K	2.05 ± 0.21
328.15 K	1.81 ± 0.18
333.15 K	1.63 ± 0.16
338.15 K	1.49 ± 0.15
343.15 K	1.4 ± 0.14
348.15 K	1.36 ± 0.14
353.15 K	1.33 ± 0.13

CCCO + C[C@H](N)C(=O)[O-].C[N+](C)(C)CCO
100 kPa, x2 = 0
Conditions	viscosity [mPa·s]
288.12 K	2.19 ± 0.52
289.34 K	2.13 ± 0.51
290.54 K	2.07 ± 0.5
291.73 K	2 ± 0.48
292.91 K	1.95 ± 0.47
294.09 K	1.89 ± 0.45
295.27 K	1.84 ± 0.44
296.45 K	1.78 ± 0.43
297.63 K	1.73 ± 0.41
298.8 K	1.68 ± 0.4
299.98 K	1.63 ± 0.39
301.16 K	1.58 ± 0.38
302.33 K	1.52 ± 0.37
303.51 K	1.48 ± 0.36
304.68 K	1.43 ± 0.34
305.86 K	1.38 ± 0.33
307.04 K	1.34 ± 0.32
308.21 K	1.29 ± 0.31

CC(=O)[O-].CC[n+]1ccn(C)c1 + Cn1ccnc1 + CCOC(C)=O
298.15 K, 101 kPa, x1 = 1, x2 = 0
Conditions	electrical conductivity [S/m]	viscosity [mPa·s]
–	0.297 ± 0.006	133.9 ± 5.6

CCCC[n+]1ccn(C)c1.N#C[N-]C#N + F[B-](F)(F)F.[Li+]
101 kPa, x1 = 1
Conditions	electrical conductivity [S/m]
288.15 K	0.596 ± 0.06
298.15 K	0.925 ± 0.093
333.15 K	2.77 ± 0.28

CCCC[n+]1ccn(C)c1.N#C[N-]C#N + F[P-](F)(F)(F)(F)F.[Li+]
101 kPa, x1 = 1
Conditions	electrical conductivity [S/m]
288.15 K	0.596 ± 0.06
298.15 K	0.925 ± 0.093
333.15 K	2.77 ± 0.28

CC(=O)[O-].CC[n+]1ccn(C)c1 + N#C[S-].[Na+]
101 kPa, x2 = 0
Conditions	electrical conductivity [S/m]	viscosity [mPa·s]
303.15 K	0.374 ± 0.0075	93.6 ± 6.1
313.15 K	0.587 ± 0.012	55.5 ± 3.6

CCCC[N+](C)(CCCC)CCCC.[Cl-] + NC(N)=NCCC[C@H](N)C(=O)O + O
313.15 K, 101.3 kPa
Conditions	viscosity [mPa·s]
x2 = 0, x1 = 0.0007203	0.67 ± 0.1
x2 = 0, x1 = 0.00144	0.7 ± 0.1

C=CC[n+]1ccn(C)c1.[Cl-] + NC(N)=O
101 kPa
Conditions	electrical conductivity, 298 K [S/m]	electrical conductivity, 308 K [S/m]	electrical conductivity, 318 K [S/m]	electrical conductivity, 328 K [S/m]	electrical conductivity, 338 K [S/m]	viscosity, 298.15 K [mPa·s]
x1 = 0.5579	0.169 ± 0.004	0.228 ± 0.005	0.287 ± 0.006	0.342 ± 0.007	0.416 ± 0.009	405 ± 20
x1 = 0.6543	0.222 ± 0.005	0.298 ± 0.006	0.372 ± 0.008	0.448 ± 0.009	0.538 ± 0.011	353 ± 16
x1 = 0.7911	0.283 ± 0.006	0.372 ± 0.008	0.464 ± 0.01	0.562 ± 0.012	0.677 ± 0.014	299 ± 13
x1 = 1	0.411 ± 0.009	0.498 ± 0.01	0.618 ± 0.013	0.736 ± 0.015	0.862 ± 0.018	255 ± 10

CCOC(=O)C[n+]1ccn(C)c1.[Cl-] + NC(N)=O
101 kPa
Conditions	electrical conductivity, 298 K [S/m]	electrical conductivity, 308 K [S/m]	electrical conductivity, 318 K [S/m]	electrical conductivity, 328 K [S/m]	electrical conductivity, 338 K [S/m]	viscosity, 298.15 K [mPa·s]
x1 = 0.4945	0.282 ± 0.006	0.347 ± 0.007	0.414 ± 0.009	0.489 ± 0.01	0.602 ± 0.012	567 ± 31
x1 = 0.5947	0.346 ± 0.007	0.433 ± 0.009	0.51 ± 0.01	0.607 ± 0.012	0.722 ± 0.015	482 ± 25
x1 = 0.7459	0.419 ± 0.009	0.525 ± 0.011	0.631 ± 0.013	0.741 ± 0.015	0.883 ± 0.018	415 ± 20
x1 = 1	0.509 ± 0.01	0.636 ± 0.013	0.764 ± 0.016	0.916 ± 0.019	1.06 ± 0.022	349 ± 16
